Target: T1, hQ23 (HEK-293 cell line stably transfected with one of the members of the KCNQ family) (Homo sapiens, UniProt O43525+O43526)
T1 construct: expressed in transfected cells; host or cells: HEK-293, stably transfected
Test: Thallium flux assay for KCNQ channel blockers (FLIPR, BTC dye)
Format: cell-based
Conditions: Table 2; thallium flux, HEK-293
In short: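 HEK-293 cells stably expressing a KCNQ member, loaded with BTC-AM (2 μM) in chloride-free buffer, pH 7.3; compounds added at 1% DMSO, then Tl2SO4 stimulus on FLIPR (488/540 nm, 60 s). Minimal active concentration set at ≥4 SD above negative control; IC50 from 10-point 1:3 series, single-site logistic fit versus the positive-control blocker.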

T1 sequence (O43526 whole entry): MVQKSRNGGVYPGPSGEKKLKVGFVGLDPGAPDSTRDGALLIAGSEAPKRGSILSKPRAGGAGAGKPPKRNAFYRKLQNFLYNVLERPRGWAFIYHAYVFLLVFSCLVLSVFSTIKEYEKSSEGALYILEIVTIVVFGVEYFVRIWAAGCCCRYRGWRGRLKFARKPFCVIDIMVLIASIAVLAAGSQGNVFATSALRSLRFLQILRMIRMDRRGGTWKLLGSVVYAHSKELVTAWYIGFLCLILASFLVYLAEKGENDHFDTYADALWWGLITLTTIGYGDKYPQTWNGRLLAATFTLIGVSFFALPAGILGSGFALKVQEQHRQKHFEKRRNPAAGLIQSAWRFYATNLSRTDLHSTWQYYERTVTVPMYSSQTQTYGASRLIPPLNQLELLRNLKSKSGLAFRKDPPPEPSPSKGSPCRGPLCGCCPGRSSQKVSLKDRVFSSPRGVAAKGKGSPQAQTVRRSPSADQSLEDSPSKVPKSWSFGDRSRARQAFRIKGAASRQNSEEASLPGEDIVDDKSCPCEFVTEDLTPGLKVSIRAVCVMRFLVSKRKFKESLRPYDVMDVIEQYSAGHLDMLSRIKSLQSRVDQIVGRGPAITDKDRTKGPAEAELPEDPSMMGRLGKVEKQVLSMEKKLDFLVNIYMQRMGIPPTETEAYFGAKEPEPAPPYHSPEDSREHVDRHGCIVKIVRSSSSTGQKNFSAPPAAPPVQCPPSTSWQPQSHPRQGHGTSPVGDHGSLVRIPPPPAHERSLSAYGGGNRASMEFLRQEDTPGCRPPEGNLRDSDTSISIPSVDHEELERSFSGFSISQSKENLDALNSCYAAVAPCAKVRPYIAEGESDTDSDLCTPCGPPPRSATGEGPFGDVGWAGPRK
T1 sequence (O43525 whole entry): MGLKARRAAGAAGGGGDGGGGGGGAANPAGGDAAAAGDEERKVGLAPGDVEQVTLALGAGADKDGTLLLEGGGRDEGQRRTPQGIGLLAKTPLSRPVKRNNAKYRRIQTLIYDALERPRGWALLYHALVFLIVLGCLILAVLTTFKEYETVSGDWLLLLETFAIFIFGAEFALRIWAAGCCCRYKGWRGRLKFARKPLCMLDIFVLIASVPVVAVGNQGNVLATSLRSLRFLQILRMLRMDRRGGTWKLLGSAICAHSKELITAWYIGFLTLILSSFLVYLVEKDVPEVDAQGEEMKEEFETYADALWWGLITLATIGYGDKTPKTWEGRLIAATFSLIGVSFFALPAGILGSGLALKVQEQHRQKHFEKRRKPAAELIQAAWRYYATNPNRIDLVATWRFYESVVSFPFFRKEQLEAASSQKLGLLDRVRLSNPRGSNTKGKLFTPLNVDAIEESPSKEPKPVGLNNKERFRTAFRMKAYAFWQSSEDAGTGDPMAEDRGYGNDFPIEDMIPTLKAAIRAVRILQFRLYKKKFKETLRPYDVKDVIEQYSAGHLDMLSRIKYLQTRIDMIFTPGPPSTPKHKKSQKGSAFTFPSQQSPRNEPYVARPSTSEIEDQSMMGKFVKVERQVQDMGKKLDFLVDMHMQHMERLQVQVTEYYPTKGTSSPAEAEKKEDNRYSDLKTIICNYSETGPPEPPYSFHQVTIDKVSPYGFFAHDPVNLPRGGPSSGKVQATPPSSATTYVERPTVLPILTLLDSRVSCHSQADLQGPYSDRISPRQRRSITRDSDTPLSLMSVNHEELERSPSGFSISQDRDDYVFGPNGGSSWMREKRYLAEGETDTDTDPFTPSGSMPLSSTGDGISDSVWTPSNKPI

SMILES | EC50 [nM]
CC1CCN(c2ncc(C(=O)NCc3ccc(Cl)cc3Cl)c(C3(c4ccccc4)CC3)n2)CC1 [Example 41, 5-pyrimidinecarboxamide, N-[(2,4-dichlorophenyl)methyl]-2-(4-methyl-1-piperidinyl)-4-(1-phenylcyclopropyl)-] | 220
CCN(Cc1ccccc1)C(=O)c1cnc(N2CCC(C)CC2)nc1C1(c2ccccc2)CC1 [Example 31, 5-pyrimidinecarboxamide, N-ethyl-2-(4-methyl-1-piperidinyl)-4-(1-phenylcyclopropyl)-N-(phenylmethyl)-] | 475
CC1CCCN(c2ncc(C(=O)NCc3cccc4ccccc34)c(C3(c4ccccc4)CC3)n2)C1 (centres unmarked) [Example 37, 5-pyrimidinecarboxamide, 2-(3-methyl-1-piperidinyl)-N-(1-naphthalenylmethyl)-4-(1-phenylcyclopropyl)-] | 214

Same assay, conditions: Table 3; thallium flux, HEK-293

SMILES | EC50 [nM]
CN1CCN(c2ncc(C(=O)NCc3ccc4c(c3)OCO4)c(C3(c4ccc(Cl)cc4)CCC3)n2)CC1 [Example 57, 5-pyrimidinecarboxamide, N-(1,3-benzodioxol-5-ylmethyl)-4-[1-(4-chlorophenyl)cyclobutyl]-2-(4-methyl-1-piperazinyl)-] | 745
CC1CCCN(c2ncc(C(=O)NC(C)c3ccc(F)cc3)c(C3(c4ccc(Cl)cc4)CCC3)n2)C1 (centres unmarked) [Example 68, 5-pyrimidinecarboxamide, 4-[1-(4-chlorophenyl)cyclobutyl]-N-[1-(4-fluorophenyl)ethyl]-2-(3-methyl-1-piperidinyl)-] | 128
O=C(NCc1cccc2ccccc12)c1cnc(N2CCCC2)nc1C1(c2ccc(Cl)cc2)CCC1 [Example 61, 5-pyrimidinecarboxamide, 4-[1-(4-chlorophenyl)cyclobutyl]-N-(1-naphthalenylmethyl)-2-(1-pyrrolidinyl)-] | 79

Same assay, conditions: hQ23 cells, thallium flux

SMILES | EC50 [nM]
CCC(C)Nc1ncc(C(=O)NC(C)c2cccc3ccccc23)c(C2(c3ccccc3)CCCC2)n1 (centres unmarked) [Example 99, 5-pyrimidinecarboxamide, 2-[(1-methylpropyl)amino]-N-[1-(1-naphthalenyl)ethyl]-4-(1-phenylcyclopentyl)-] | 293
CCN(Cc1ccccc1)C(=O)c1cnc(N2CCC(C)CC2)nc1C1(c2ccccc2)CCCC1 [Example 86, 5-pyrimidinecarboxamide, N-ethyl-2-(4-methyl-1-piperidinyl)-4-(1-phenylcyclopentyl)-N-(phenylmethyl)-] | 334
CCC(C)Nc1ncc(C(=O)NCc2ccc(Cl)cc2Cl)c(C2(c3ccc(Cl)cc3)CCCC2)n1 (centres unmarked) [Example 183, 5-pyrimidinecarboxamide, 4-[1-(4-chlorophenyl)cyclopentyl]-N-[(2,4-dichlorophenyl)methyl]-2-[(1-methylpropyl)amino]-] | 10
O=C(NCc1ccc(F)cc1F)c1cnc(NC2CCCC2)nc1C1(c2ccccc2)CCCC1 [Example 121, 5-pyrimidinecarboxamide, 2-(cyclopentylamino)-N-[(2,4-difluorophenyl)methyl]-4-(1-phenylcyclopentyl)-] | 24
CC1CCC(Nc2ncc(C(=O)NC(C)c3ccc(F)cc3)c(C3(c4ccccc4)CCCC3)n2)CC1 (centres unmarked) [Example 131, 5-pyrimidinecarboxamide, N-[1-(4-fluorophenyl)ethyl]-2-[(4-methylcyclohexyl)amino]-4-(1-phenylcyclopentyl)-] | 158
CC(NC(=O)c1cnc(NC2CCCC2)nc1C1(c2ccccc2)CCCC1)c1ccc(F)cc1 (centres unmarked) [Example 136, 5-pyrimidinecarboxamide, 2-(cyclopentylamino)-N-[1-(4-fluorophenyl)ethyl]-4-(1-phenylcyclopentyl)-] | 413
CN(CCc1ccccc1)C(=O)c1cnc(N2CCCC2)nc1C1(c2ccccc2)CCCC1 [Example 79, 5-pyrimidinecarboxamide, N-methyl-4-(1-phenylcyclopentyl)-N-(2-phenylethyl)-2-(1-pyrrolidinyl)-] | 444
CC(NC(=O)c1cnc(NC2CCCC2)nc1C1(c2ccccc2)CCCC1)c1cccc2ccccc12 (centres unmarked) [Example 100, 5-pyrimidinecarboxamide, 2-(cyclopentylamino)-N-[1-(1-naphthalenyl)ethyl]-4-(1-phenylcyclopentyl)-] | 160
CCC(C)Nc1ncc(C(=O)NC(C)c2ccc(F)cc2)c(C2(c3ccc(Cl)cc3)CCCC2)n1 (centres unmarked) [Example 200, 5-pyrimidinecarboxamide, 4-[1-(4-chlorophenyl)cyclopentyl]-N-[1-(4-fluorophenyl)ethyl]-2-[(1-methylpropyl)amino]-] | 911
CC(NC(=O)c1cnc(N2CCCC2)nc1C1(c2ccccc2)CCCC1)c1ccc(F)cc1 (centres unmarked) [Example 132, 5-pyrimidinecarboxamide, N-[1-(4-fluorophenyl)ethyl]-4-(1-phenylcyclopentyl)-2-(1-pyrrolidinyl)-] | 195
O=C(NCc1cccc2ccccc12)c1cnc(N2CCCC2)nc1C1(c2ccc(Cl)cc2)CCCC1 [Example 167, 5-pyrimidinecarboxamide, 4-[1-(4-chlorophenyl)cyclopentyl]-N-(1-naphthalenylmethyl)-2-(1-pyrrolidinyl)-] | 142
O=C(NCc1cc(F)cc(C(F)(F)F)c1)c1cnc(NC2CCCC2)nc1C1(c2ccccc2)CCCC1 [Example 130, 5-pyrimidinecarboxamide, 2-(cyclopentylamino)-N-[[3-fluoro-5-(trifluoromethyl)phenyl]methyl]-4-(1-phenylcyclopentyl)-] | 875
CCC(C)Nc1ncc(C(=O)N(CC)C2CCCCC2)c(C2(c3ccc(Cl)cc3)CCCC2)n1 (centres unmarked) [Example 143, 5-pyrimidinecarboxamide, 4-[1-(4-chlorophenyl)cyclopentyl]-N-cyclohexyl-N-ethyl-2-[(1-methylpropyl)amino]-] | 880
CC1CCN(c2ncc(C(=O)N(C)Cc3ccccc3)c(C3(c4ccccc4)CCCC3)n2)CC1 [Example 70, 5-pyrimidinecarboxamide, N-methyl-2-(4-methyl-1-piperidinyl)-4-(1-phenylcyclopentyl)-N-(phenylmethyl)-] | 270
CC1CCCN(c2ncc(C(=O)NCc3ccc4c(c3)OCO4)c(C3(c4ccc(Cl)cc4)CCCC3)n2)C1 (centres unmarked) [Example 153, 5-pyrimidinecarboxamide, N-(1,3-benzodioxol-5-ylmethyl)-4-[1-(4-chlorophenyl)cyclopentyl]-2-(3-methyl-1-piperidinyl)-] | 10
CN1CCC(N(C)c2ncc(C(=O)NCc3ccc(C(F)(F)F)cc3)c(C3(c4ccc(Cl)cc4)CCCC3)n2)CC1 [Example 204, 5-pyrimidinecarboxamide, 4-[1-(4-chlorophenyl)cyclopentyl]-2-[methyl(1-methyl-4-piperidinyl)amino]-N-[[4-(trifluoromethyl)phenyl]methyl]-] | 400
CC1CCN(c2ncc(C(=O)NCc3cccc4ccccc34)c(C3(c4ccccc4)CCCC3)n2)CC1 [Example 104, 5-pyrimidinecarboxamide, 2-(4-methyl-1-piperidinyl)-N-(1-naphthalenylmethyl)-4-(1-phenylcyclopentyl)-] | 10

Same assay, conditions: hQ23 cells, thallium flux assay

SMILES | EC50 [nM]
O=C(NCc1cc(F)cc(C(F)(F)F)c1)c1cnc(NC2CCCC2)nc1C1(c2ccc(F)cc2)CCCC1 [Example 280, 5-pyrimidinecarboxamide, 2-(cyclopentylamino)-4-[1-(4-fluorophenyl)cyclopentyl]-N-[[3-fluoro-5-(trifluoromethyl)phenyl]methyl]-] | 60
CN(C)CCNc1ncc(C(=O)NCc2ccc(Cl)c(Cl)c2)c(C2(c3ccc(F)cc3)CCCC2)n1 [Example 257, 5-pyrimidinecarboxamide, N-[(3,4-dichlorophenyl)methyl]-2-[[2-(dimethylamino)ethyl]amino]-4-[1-(4-fluorophenyl)cyclopentyl]-] | 904
CC(NC(=O)c1cnc(N2CCN(C)CC2)nc1C1(c2ccc(F)cc2)CCCC1)c1cccc2ccccc12 (centres unmarked) [Example 243, 5-pyrimidinecarboxamide, 4-[1-(4-fluorophenyl)cyclopentyl]-2-(4-methyl-1-piperazinyl)-N-[1-(1-naphthalenyl)ethyl]-] | 852
CCN(Cc1ccccc1)C(=O)c1cnc(NC2CCCC2)nc1C1(c2ccc(F)cc2)CCCC1 [Example 232, 5-pyrimidinecarboxamide, 2-(cyclopentylamino)-N-ethyl-4-[1-(4-fluorophenyl)cyclopentyl]-N-(phenylmethyl)-] | 460
CC1CCN(c2ncc(C(=O)NCc3ccc(C(F)(F)F)cc3)c(C3(c4ccc(F)cc4)CCCC3)n2)CC1 [Example 288, 5-pyrimidinecarboxamide, 4-[1-(4-fluorophenyl)cyclopentyl]-2-(4-methyl-1-piperidinyl)-N-[[4-(trifluoromethyl)phenyl]methyl]-] | 75
CC1CCC(Nc2ncc(C(=O)NC(C)c3cccc4ccccc34)c(C3(c4ccc(F)cc4)CCCC3)n2)CC1 (centres unmarked) [Example 241, 5-pyrimidinecarboxamide, 4-[1-(4-fluorophenyl)cyclopentyl]-2-[(4-methylcyclohexyl)amino]-N-[1-(1-naphthalenyl)ethyl]-] | 10
CC1CCC(Nc2ncc(C(=O)NCc3ccc(F)cc3F)c(C3(c4ccc(F)cc4)CCCC3)n2)CC1 (centres unmarked) [Example 267, 5-pyrimidinecarboxamide, N-[(2,4-difluorophenyl)methyl]-4-[1-(4-fluorophenyl)cyclopentyl]-2-[(4-methylcyclohexyl)amino]-] | 48
CC1CCCN(c2ncc(C(=O)NCc3cc(F)cc(C(F)(F)F)c3)c(C3(c4ccc(F)cc4)CCCC3)n2)C1 (centres unmarked) [Example 277, 5-pyrimidinecarboxamide, 4-[1-(4-fluorophenyl)cyclopentyl]-N-[[3-fluoro-5-(trifluoromethyl)phenyl]methyl]-2-(3-methyl-1-piperidinyl)-] | 22
O=C(NCc1ccc(Cl)cc1Cl)c1cnc(N2CCCC2)nc1C1(c2ccc(F)cc2)CCCC1 [Example 261, 5-pyrimidinecarboxamide, N-[(2,4-dichlorophenyl)methyl]-4-[1-(4-fluorophenyl)cyclopentyl]-2-(1-pyrrolidinyl)-] | 28

Reference: patent publication US7091202B2, “4-arylspirocycloalkyl-2-aminopyrimidine carboxamide KCNQ potassium channel modulators” (Bristol-Myers Squibb Company, priority 2004, dated 2006)
